One experiment concerns Molt 4 (T-lymphoid). Description: Anti-proliferation in Molt 4 cells. In kind it is cell-based, human. The settings on record: read-out: Anti-Proliferation EC50.
A further experiment concerns KG-1 (Myeloid). Description: Anti-proliferation in KG-1 cells. The format is cell-based, human. The settings on record: read-out: Anti-Proliferation EC50.
Experiment [1] concerns PHA-blast (human T-cells). Briefly: Anti-proliferation in human PHA-lymphoblasts (BrdU/XTT). In kind it is cell-based. The settings on record: read-out: Anti-Proliferation EC50. A general note: Tetrazolium assays rely on reduction of a dye to a coloured formazan, in cell work by metabolically active cells.
A further experiment deals with PM-1 (T-lymphoid). Briefly: Anti-proliferation in PM-1 cells. The settings on record: read-out: Anti-Proliferation EC50. In kind it is cell-based, human.
The next experiment has as its system CEM (T-lymphoid). Description: Anti-proliferation in CEM cells. In kind it is cell-based, human. The settings on record: read-out: Anti-Proliferation EC50.
Another experiment has as its system HL-60 (Myeloid). Description: Anti-proliferation in HL-60 cells. The format is cell-based, human. The settings on record: read-out: Anti-Proliferation EC50.
The subject of the next experiment is U937 (Monocytic). Briefly: Anti-proliferation in U937 cells. In kind it is cell-based, human. The settings on record: read-out: Anti-Proliferation EC50.
For the next experiment, the system named is Daudi (B-lymphoid). Description: Anti-proliferation in Daudi cells. The format is cell-based, human. The settings on record: 3 days incubation.
The test system of a further experiment is RL (B-lymphoid). Description: Anti-proliferation in RL cells. The format is cell-based. The settings on record: Homo sapiens, 72 h, 3 days incubation.
Another experiment deals with Raji (B-lymphoid). Briefly: Anti-proliferation in Raji cells. In kind it is cell-based, human. The settings on record: 3 days incubation.
[2] abbreviates: Homo sapiens, 72 h, Molt 4 (T-lymphoid), 3 days incubation.
[3] abbreviates: Homo sapiens, 72 h, KG-1 (Myeloid), 3 days incubation.
The mark [4] stands for this setting: Homo sapiens, 72 h, PM-1 (T-lymphoid), 3 days incubation.
Where [5] appears, read: Homo sapiens, 72 h, CEM (T-lymphoid), 3 days incubation.
[6] abbreviates: Homo sapiens, 72 h, HL-60 (Myeloid), 3 days incubation.
Where [7] appears, read: Homo sapiens, U-937, 72 h, U937 (Monocytic), 3 days incubation.

Like-named read-outs stand apart in the source and are kept apart here.

Method for CEM (T-lymphoid): (§1) Compounds were tested using human and canine lymphoblasts (stimulated with a T-cell mitogen phytohaemagglutinin (PHA) or a B-cell mitogen pokeweed mitogen (PWM)), two T-lymphoid cell lines derived from patients with acute lymphocytic leukemia (CEM and Molt-4), two myeloid cell lines derived from patients with acute myelogenous leukemia (KG-1 and HL-60), two B-lymphoid cell lines derived from Burkitt's lymphoma (Daudi and Raji), a B-lymphoid cell line from non-Hodgkin's lymphoma (RL), a T-lymphoid cell line from cutaneous T-lymphoma (PM-1), and a monocytic cell line from histiocytic lymphoma (U937). Lymphoblasts (150,000 cells per microtiter well) and leukemia/lymphoma cell lines (30,000 cells per well) were incubated with 5-fold serial dilutions of compounds for 3 days.
Method for Daudi (B-lymphoid): as §1
Method for HL-60 (Myeloid): as §1
Method for KG-1 (Myeloid): as §1
Method for Molt 4 (T-lymphoid): as §1
Method for PM-1 (T-lymphoid): as §1
Method for RL (B-lymphoid): as §1
Method for Raji (B-lymphoid): as §1

`Nc1nc(Cl)nc2c1ncn2[C@H]1C[C@H](O)[C@@H](CO)O1` [Cladribine]: the EC50 in the experiment on Molt 4 (T-lymphoid) (setting [2]) turned out to be 74 nM; in the experiment with KG-1 (Myeloid) (setting [3]), 89 nM; in experiment [1] (Homo sapiens, T-cell, 72 h), 296 nM; in the experiment on PM-1 (T-lymphoid) (setting [4]), 40 nM; with CEM (T-lymphoid) (setting [5]) it was 1170 nM; with HL-60 (Myeloid) (setting [6]) it was 50 nM. Moreover, the EC50 in the experiment on U937 (Monocytic) (setting [7]) came to 20 nM; with Daudi (B-lymphoid) (Homo sapiens, 72 h) it was 525 nM; in the experiment with RL (B-lymphoid), 4 nM; in the experiment with Raji (B-lymphoid) (Homo sapiens, 72 h) it was 12 nM.
`Nc1ncn([C@H]2C[C@H](O)[C@@H](CO)O2)c(=O)n1` [Decitabine]: the EC50 in the experiment on Molt 4 (T-lymphoid) (Homo sapiens, MOLT-4, 72 h) was 580 nM; in the experiment on KG-1 (Myeloid) (Homo sapiens, KG-1, 72 h) it was 83 nM; in experiment [1] (Homo sapiens, T-cell, 72 h), 204 nM; in the experiment on PM-1 (T-lymphoid) (Homo sapiens, T-lymphoid, 72 h), > 20000 nM; in the experiment with CEM (T-lymphoid) (Homo sapiens, T-lymphoid, 72 h), 3000 nM; in the experiment on HL-60 (Myeloid) (Homo sapiens, HL-60, 72 h), 3830 nM. Moreover, the EC50 with U937 (Monocytic) (Homo sapiens, U-937, 72 h) is 77 nM.
Regarding `COc1cccc2c1C(=O)c1c(O)c3c(c(O)c1C2=O)C[C@@](O)(C(=O)CO)C[C@@H]3O[C@H]1C[C@H](N)[C@H](O)[C@H](C)O1` [Doxorubicin], the EC50 amounted to 1.2 nM in the experiment on Molt 4 (T-lymphoid) (setting [2]); 28 nM with KG-1 (Myeloid) (setting [3]); 7.6 nM in experiment [1] (Homo sapiens, T-cell, 72 h); 29.5 nM in the experiment on PM-1 (T-lymphoid) (setting [4]); 24 nM with HL-60 (Myeloid) (setting [6]); 13 nM in the experiment on U937 (Monocytic) (setting [7]). The EC50 in the experiment on Daudi (B-lymphoid) (Homo sapiens, 72 h) was determined as 3.8 nM; with RL (B-lymphoid) it was 25 nM; in the experiment with Raji (B-lymphoid) (Homo sapiens, 72 h), 8.6 nM.
Take `Nc1nc(F)nc2c1ncn2[C@@H]1O[C@H](CO)[C@@H](O)[C@@H]1O` [Fludarabine des-phosphate]: the EC50 with Molt 4 (T-lymphoid) (setting [2]) was 1550 nM; in the experiment with KG-1 (Myeloid) (setting [3]), 4520 nM; in [1] (Homo sapiens, T-cell, 72 h), 1100 nM; in the experiment with PM-1 (T-lymphoid) (setting [4]), 12900 nM; with CEM (T-lymphoid) (setting [5]), > 40000 nM; in the experiment on HL-60 (Myeloid) (setting [6]) it was 1770 nM. The EC50 in the experiment with U937 (Monocytic) (setting [7]) worked out at 300 nM.
On to `Nc1nc(N)c2ncn(CCOCP(=O)(O)O)c2n1` [PMEDAP, 9-(2-phosphonylmethoxyethyl)-2,6-diaminopurine], for which the EC50 was found to be 27900 nM in the experiment with Molt 4 (T-lymphoid) (setting [2]); 7630 nM in the experiment with KG-1 (Myeloid) (setting [3]); 8950 nM in [1] (T-cell, 72 h, PHA-blast (human T-cells), 3 days incubation); 22700 nM in the experiment on PM-1 (T-lymphoid) (setting [4]); 19900 nM with CEM (T-lymphoid) (setting [5]); 21700 nM in the experiment with HL-60 (Myeloid) (setting [6]). Further, the EC50 with U937 (Monocytic) (setting [7]) was 24400 nM; in the experiment with Daudi (B-lymphoid) (Homo sapiens, 72 h) it was 14000 nM; in the experiment on Raji (B-lymphoid) (Homo sapiens, 72 h), 24900 nM.
Regarding `Nc1nc2c(ncn2CCOCP(=O)(O)O)c(=O)[nH]1` [PMEG, 9-(2-phosphonylmethoxyethyl)guanine], the EC50 with Molt 4 (T-lymphoid) (Molt 4 (T-lymphoid), 3 days incubation) came out at 1740 nM; in the experiment with KG-1 (Myeloid) (KG-1 (Myeloid), 3 days incubation) it was 2930 nM; in [1] (PHA-blast (human T-cells), 3 days incubation), 1680 nM; in the experiment on PM-1 (T-lymphoid) (PM-1 (T-lymphoid), 3 days incubation), 4020 nM; in the experiment on CEM (T-lymphoid) (CEM (T-lymphoid), 3 days incubation) it was 5200 nM; in the experiment with HL-60 (Myeloid) (HL-60 (Myeloid), 3 days incubation), 3920 nM. The EC50 with U937 (Monocytic) (U937 (Monocytic), 3 days incubation) was determined as 4010 nM; in the experiment on Daudi (B-lymphoid) it was 994 nM; in the experiment on Raji (B-lymphoid), 2720 nM.

The record behind these values is patent publication US20090258840A1, “METHOD AND COMPOSITIONS FOR TREATING HEMATOLOGICAL MALIGNANCIES” (Gilead Sciences, Inc., priority 2006, published 2009).
